These compounds were tested on cultured human mast cells (CHMC) (assay: CHMC low cell density IgE activation: tryptase assay). Conditions: Homo sapiens, Mast cell, low cell density CHMC, IgE activation, tryptase release, 8 pt; read-out: LD Tryptase, CHMC, IgE, 8 pt.
Format: cell-based
Protocol: Inhibition of degranulation was measured at both low and high cell density by quantifying the release of the granule specific factors tryptase, histamine and hexosaminidase. Inhibition of release and/or synthesis of lipid mediators was assessed by measuring the release of leukotriene LTC4 and inhibition of release and/or synthesis of cytokines was monitored by quantifying TNF-α, IL-6 and IL-13. Tryptase and hexosaminidase were quantified using fluorogenic substrates as described in their respective examples. […] The protocols of the various assays are provided below.
Pellet CHMC cells (980 rpm, 10 min) and resuspend in pre-warmed MT. Add 65 ul of cells to each 96-well plate. Depending on the degranulation activity for each particular CHMC donor, load 1000-1500 cells/well. Mix four times followed by a 1 hr incubation at 37° C. […] Stimulate cells by adding 25 ul of 6× anti-IgE solution to the appropriate plates. Add 25 ul MT to un-stimulated control wells. Mix twice following addition of the anti-IgE. Incubate at 37° C. for 30 minutes. […] Spin plates at 1000 rpm for 10 min to pellet cells. Transfer 25 ul of supernatant to a 96-well black bottom plate and add 100 ul of freshly diluted tryptase substrate solution to each well. Incubate plates at room temperature for 30 min.

Compound	IC50
Cc1cc(C)cc(Nc2ncc(F)c(Nc3ccc4c(c3)NC(=O)C(C)S4)n2)c1 (stereo not drawn) [Compound 271]	< 10 µM
CC(C)n1ncc2ccc(Nc3ncc(F)c(Nc4ccc5c(c4)NC(=O)C(C)(C)O5)n3)cc21 [Compound 785, N4-(2,2-Dimethyl-3-oxo-4H-benz[1,4]oxazin-6-yl)-5-fluoro-N2-[1-(1-methylethyl)indazol-6-yl]-2,4-pyrimidinediamine]	< 10 µM

Next, values leading:

IC50	Compound
< 10 µM	CC(=O)NCCCn1ncc2cc(Nc3ncc(F)c(Nc4ccc(Cl)c(Cl)c4)n3)ccc21 [Compound 820, N2-[1-[3-(N-Acetylamino)propyl]indazol-5-yl]-N4-(3,4-dichlorophenyl)-5-fluoro-2,4-pyrimidinediamine]
< 10 µM	COc1ccc(Nc2ncc(F)c(Nc3ccc4c(c3)NC(=O)CS4(=O)=O)n2)cc1F [Compound 309]
< 10 µM	Cc1cc(C)cc(Nc2ncc(F)c(Nc3ccc4c(c3)NC(=O)C(C)(C)S4)n2)c1 [Compound 291]
< 10 µM	COc1ccc(Nc2nc(Nc3ccc4cnn(C(C)C)c4c3)ncc2F)cc1Cl [Compound 783, N4-(3-Chloro-4-methoxyphenyl)-5-fluoro-N2-[1-(1-methylethyl)indazol-6-yl]-2,4-pyrimidinediamine]

Same assay, conditions: Homo sapiens, Mast cell, low cell density CHMC, IgE activation, tryptase, 3 pt; read-out: LD Tryptase, CHMC, IgE, 3 pt

Compound	IC50
Cc1cc(Nc2ncc(F)c(NC(C)C)n2)ccc1N1CCN(C)CC1 [Compound 1206]	< 10 µM
Cc1cc(Nc2ncc(F)c(NC3CC(C)(C)N(C)C(C)(C)C3)n2)cnc1N1CCN(C)CC1 [Compound 1244]	> 10 µM
Cc1cc(Nc2ncc(F)c(NC(C)C)n2)cnc1N1CCN(C)CC1 [Compound 1242]	< 10 µM
Fc1cnc(Nc2ccc3c(cnn3C3CCCCC3)c2)nc1Nc1ccc(Cl)c(Cl)c1 [Compound 743, N2-(1-Cyclohexylindazol-5-yl)-N4-(3,4-dichlorophenyl)-5-fluoro-2,4-pyrimidinediamine]	< 10 µM
CN1CCN(c2ccc(Nc3ncc(F)c(NC4CC(C)(C)N(C)C(C)(C)C4)n3)cc2)CC1 [Compound 1219]	> 10 µM

Results, then the compound that gave them:

IC50	Compound
< 10 µM	COc1cc(Nc2nc(Nc3cc4cnn(C)c4cc3C)ncc2F)ccc1F [Compound 759, N2-(1,6-Dimethylindazol-5-yl)-5-fluoro-N4-(4-fluoro-3-methoxyphenyl)-2,4-pyrimidinediamine]
< 10 µM	COc1ccc(Nc2nc(Nc3ccc4c(cnn4CC4CCC4)c3)ncc2F)cc1Cl [Compound 726, N4-(3-Chloro-4-methoxyphenyl)-N2-[1-(cyclobutylmethyl)indazol-5-yl]-5-fluoro-2,4-pyrimidinediamine]

Same assay, conditions: Homo sapiens, Mast cell, low cell density CHMC, IgE activation, tryptase, 8 pt; read-out: LD Tryptase, CHMC, IgE, 8 pt

IC50	Compound
> 10 µM	Cc1cc(Nc2ncc(F)c(NC(C)C)n2)ccc1N1CCN(C)CC1 [Compound 1206]
< 10 µM	CCCn1ncc2ccc(Nc3ncc(F)c(Nc4ccc5c(c4)NC(=O)C(C)(C)O5)n3)cc21 [Compound 708, N4-(2,2-Dimethyl-3-oxo-4H-benz[1,4]oxazin-6-yl)-5-fluoro-N2-(1-n-propylindazol-6-yl)-2,4-pyrimidinediamine]
< 10 µM	CC1(C)Oc2ccc(Nc3nc(Nc4ccc5cnn(CC6CC6)c5c4)ncc3F)cc2NC1=O [Compound 740, N2-[1-(Cyclopropylmethyl)indazol-6-yl]-N4-(2,2-dimethyl-3-oxo-4H-benz[1,4]oxazin-6-yl)-5-fluoro-2,4-pyrimidinediamine]
< 10 µM	COc1cc(Nc2ncc(F)c(Nc3ccc4c(c3)OCO4)n2)cc(OC)c1 [Compound 372, N2-(3,5-Dimethoxyphenyl)-5-fluoro-N4-(3,4-methylenedioxyphenyl)-2,4-pyrimidinediamine]

Same assay, conditions: Homo sapiens, Mast cell, low cell density, IgE activation, 3 pt; read-out: LD Tryptase, CHMC, IgE, 3 pt

Compound	IC50
CC1C(=O)Nc2cc(Nc3nc(Nc4ccc5[nH]c(C(F)(F)F)nc5c4)ncc3F)ccc2S1(=O)=O (stereo not drawn) [Compound 910, 5-Fluoro-N4-(2-methyl-1,1,3-trioxo-2H,4H-benzo[1,4]thiazin-6-yl)-N2-(2-trifluoromethyl-1H-benzimidazol-5-yl)-2,4-pyrimidinediamine]	< 10 µM
Cn1c(=O)[nH]c2cc(Nc3ncc(F)c(Nc4ccc5c(c4)NC(=O)C(C)(C)O5)n3)ccc21 [Compound 906]	< 10 µM

Continued, values first:

IC50	Compound
> 10 µM	Cc1noc(C)c1Nc1ncc(F)c(Nc2c(C)noc2C)n1 [Compound 528]
< 10 µM	Fc1cnc(Nc2cc(-c3ncco3)cc(C(F)(F)F)c2)nc1Nc1cc(-c2ncco2)cc(C(F)(F)F)c1 [Compound 529]

Same assay, conditions: Homo sapiens, Mast cell, low cell density, IgE activation, 8 pt; read-out: LD Tryptase, CHMC, IgE, 8 pt

IC50	Compound
< 10 µM	CC1Sc2ccc(Nc3nc(Nc4ccc5oncc5c4)ncc3F)cc2NC1=O (racemic) [Compound 931]
< 10 µM	Cn1c(C(F)(F)F)nc2cc(Nc3ncc(F)c(Nc4ccc(Cl)c(Cl)c4)n3)ccc21 [Compound 911]
< 10 µM	Cn1c(=O)[nH]c2cc(Nc3ncc(F)c(Nc4ccc5c(c4)NC(=O)C(C)(C)O5)n3)ccc21 [Compound 906]

Same assay, conditions: low cell density CHMC, IgE activation, tryptase release, 3 point; read-out: LD Tryptase, CHMC, IgE, 3 pt

IC50	Compound
< 10 µM	Fc1cnc(Nc2cc(Cl)cc(Cl)c2)nc1Nc1ccc2c(c1)OC(F)(F)O2 [Compound 565]

Same assay, conditions: low cell density CHMC, IgE activation, tryptase release, 3 pt; read-out: LD Tryptase, CHMC, IgE, 3 pt

Compound	IC50
O=C1CSc2ccc(Nc3nc(Cl)ncc3F)cc2N1 [Compound 313, N2-Chloro-5-fluoro-N4-(3-oxo-2H,4H-benzo[1,4]thiazin-6-yl)-4-pyrimidineamine]	< 10 µM
(R)-N2- (3-Chloro-4-methoxyphenyl)-5-fluoro-N4- (2-methyl-3-oxo-2H,4H-benz[1,4]oxazin-6-yl)-2,4-pyrimidinediamine (1R)-(−)-Camphorsulfonic Acid Salt [Compound 212]	< 10 µM

Same assay, conditions: low cell density CHMC, IgE activation, tryptase release, 8 pt; read-out: LD Tryptase, CHMC, IgE, 8 pt

Compound	IC50
(R)-N2- (3-Chloro-4-methoxyphenyl)-5-fluoro-N4- (2-methyl-3-oxo-2H,4H-benz[1,4]oxazin-6-yl)-2,4-pyrimidinediamine (1R)-(−)-Camphorsulfonic Acid Salt [Compound 212]	< 10 µM

Same assay, conditions: low cell density CHMC, IgE activation, tryptase, 3 pt; read-out: LD Tryptase, CHMC, IgE, 3 pt

IC50	Compound
< 10 µM	CCN(CC)CCNC(=O)c1ccc(Nc2ncc(F)c(N(C)c3ccc(Cl)c(Cl)c3)n2)cc1 [Compound 1347, N2-(4-[2-[N,N-Diethylamino]ethyleneaminocarbonyl]phenyl)-N4-(3,4-dichlorophenyl)-5-fluoro-N4-methyl-2,4-pyrimidinediamine]
< 10 µM	N2- (2-Aminocarbonylphenyl)-N4- (2,2-dimethyl-3-oxo-4H-5-pyrid[1,4]oxazin-6-yl)-5-fluoro-2,4-pyrimidinediamine [Compound 1316]
< 10 µM	COc1cc(Nc2ncc(F)c(Nc3ccc4c(n3)NC(=O)C(C)(C)O4)n2)cc(OC)c1OCCN1CCOCC1 [Compound 692, N2-[3,5-Dimethoxy-4-(2-(N-morpholino)ethyloxo)phenyl]-N4-(2,2-dimethyl-3-oxo-4H-5-pyrid[1,4]oxazin-6-yl)-5-fluoro-2,4-pyrimidinediamine]

Same assay, conditions: low cell density CHMC, IgE activation, tryptase, 8 pt; read-out: LD Tryptase, CHMC, IgE, 8 pt

Compound	IC50
N2-[3,5-Bis (hydroxymethylene)phenyl]-N4- (3-chloro-4-methoxyphenyl)-5-fluoro-2,4-pyrimidinediamine [Compound 345]	< 10 µM
COc1cc(Nc2ncc(F)c(Nc3ccc4c(n3)NC(=O)C(C)(C)O4)n2)cc(OC)c1OCCN1CCOCC1 [Compound 692, N2-[3,5-Dimethoxy-4-(2-(N-morpholino)ethyloxo)phenyl]-N4-(2,2-dimethyl-3-oxo-4H-5-pyrid[1,4]oxazin-6-yl)-5-fluoro-2,4-pyrimidinediamine]	< 10 µM

More lines, now with the values ahead:

IC50	Compound
< 10 µM	N2- (3,5-Dichloro-4-hydroxyphenyl)-5-fluoro-N4- (4-[N-[methoxycarbonylmethylene]aminocarbonyl]phenyl)-2,4-pyrimidinediamine [Compound 1329]
< 10 µM	COc1cc(Nc2ncc(F)c(Nc3ccc4c(n3)N(C)C(=O)C(C)(C)O4)n2)cc(OC)c1OC [Compound 689, 5-Fluoro-N4-(3-oxo-2,2,4-trimethyl-5-pyrid[1,4]oxazin-6-yl)-N2-(3,4,5-trimethoxyphenyl)-2,4-pyrimidinediamine]
> 10 µM	N2- (2-Aminocarbonylphenyl)-N4- (2,2-dimethyl-3-oxo-4H-5-pyrid[1,4]oxazin-6-yl)-5-fluoro-2,4-pyrimidinediamine [Compound 1316]

Same assay, conditions: low cell density, IgE activation, 3 pt; read-out: LD Tryptase, CHMC, IgE, 3 pt

IC50	Compound
< 10 µM	Cn1c(N2CCOCC2)nc2cc(Nc3ncc(F)c(Nc4ccc5c(n4)NC(=O)C(C)(C)O5)n3)ccc21 [Compound 946, N4-(2,2-Dimethyl-3-oxo-4H-5-pyrido[1,4]oxazin-6-yl)-5-fluoro-N2-[1-methyl-2-(4-morpholino)benzimidazol-5-yl]-2,4-pyrimidinediamine]

Same assay, conditions: low cell density, IgE activation, 8 pt; read-out: LD Tryptase, CHMC, IgE, 8 pt

IC50	Compound
< 10 µM	Cn1c(N2CCOCC2)nc2cc(Nc3ncc(F)c(Nc4ccc5c(n4)NC(=O)C(C)(C)O5)n3)ccc21 [Compound 946, N4-(2,2-Dimethyl-3-oxo-4H-5-pyrido[1,4]oxazin-6-yl)-5-fluoro-N2-[1-methyl-2-(4-morpholino)benzimidazol-5-yl]-2,4-pyrimidinediamine]
< 10 µM	OCCn1c(C(F)(F)F)nc2cc(Nc3ncc(F)c(Nc4ccc(Cl)c(Cl)c4)n3)ccc21 [Compound 916]

— patent US20220073536A1 (Rigel Pharmaceuticals, Inc., priority 2003, published 2022)
